Data published in US6407235B1, “Prodrug acid esters of [2-(4-benzyl-3-hydroxy-piperidin-1-yl)-ethansulfonyl]phenol” (Hoffmann-La Roche Inc., priority 2001, dated 2002).
Values after ≈ are worked out from the molar mass of the structure shown. Where two headings read alike, the source gives them in different places.

Legend:
Stability in solution = type: physicochemical; conditions: pH 7.4, 24 hours
Solubility = type: physicochemical; conditions: for Solubility at pH 7.4 relative to the parent compound, suggested/assumed from pH 4.0 data: pH 7.4, not measured directly
NMDA receptor subtype = conditions: known from WO 00/75109; cited from earlier work
[1] = pH 4, aqueous buffer, read-out: Solubility (μg/ml at pH 4)
[2] = pH 7, aqueous buffer, read-out: Solubility (μg/ml at pH 7)

Row | Stability at pH 7.4 over 24 hours (Stability in solution) | solubility (Solubility; [1]) [µg/mL] | Solubility at pH 7.4 relative to the parent compound, suggested/assumed from pH 4.0 data (Solubility) | SMILES | solubility (Solubility; [2]) [µg/mL] | NMDA receptor subtype specific blocker (NMDA receptor subtype) | solubility (Solubility; aqueous buffer, pH 4.8 (printed in the cell of the pH 4 column), read-out: Solubility (μg/ml) at pH 4.8) [µg/mL] | Water solubility at physiological pH (Solubility; physiological pH)
1 | unstable | 26100 (≈ 49.9 mM) | higher solubility | CNCc1ccc(C(=O)Oc2ccc(S(=O)(=O)CCN3CC[C@H](Cc4ccccc4)[C@H](O)C3)cc2)cc1 [Example 10, 4-Methylaminomethyl-benzoic Acid (3S,4S)-4-[2-(4-benzyl-3-hydroxy-piperidin-1-yl)-ethanesulfonyl]-phenyl Ester] | – | – | – | –
2 | – | 1800 (≈ 3.78 mM) | – | O=C(O)CCC(=O)Oc1ccc(S(=O)(=O)CCN2CC[C@H](Cc3ccccc3)[C@H](O)C2)cc1 [Example 1, Succinic Acid Mono-{(3S,4S)-4-[2-(4-benzyl-3-hydroxy-piperidin-1-yl)-ethanesulfonyl]-phenyl}ester] | 7690 (≈ 16.2 mM) | – | – | –
3 | unstable | 86600 (≈ 166 mM) | higher solubility | CNCc1cccc(C(=O)Oc2ccc(S(=O)(=O)CCN3CC[C@H](Cc4ccccc4)[C@H](O)C3)cc2)c1 [Example 9, 3-Methylaminomethyl-benzoic Acid (3S,4S)-4-[2-(4-benzyl-3-hydroxy-piperidin-1-yl)-ethanesulfonyl]-phenyl Ester] | – | – | – | –
4 | unstable | 6710 (≈ 13.2 mM) | higher solubility can be assumed | NCc1ccc(C(=O)Oc2ccc(S(=O)(=O)CCN3CC[C@H](Cc4ccccc4)[C@H](O)C3)cc2)cc1 [Example 7, 4-Aminomethyl-benzoic Acid (3S,4S)-4-[2-(4-benzyl-3-hydroxy-piperidin-1-yl)-ethanesulfonyl]-phenyl Ester] | – | – | – | –
5 | – | – | – | O=S(=O)(CCN1CC[C@H](Cc2ccccc2)[C@H](O)C1)c1ccc(O)cc1 [Compound of formula II, (3S,4S)-4-[2-(4-benzyl-3-hydroxy-piperidin-1-yl)-ethanesulfonyl]-phenol, reference compound] | 47 | good NMDA receptor subtype specific blocker | 7750 | limited water solubility
6 | – | 8500 (≈ 14.7 mM) | – | O=C(Oc1ccc(S(=O)(=O)CCN2CC[C@H](Cc3ccccc3)[C@H](O)C2)cc1)c1cccc(CN2CCOCC2)c1 [Example 6, 3-Morpholin-4-ylmethyl-benzoic Acid (3S,4S)-4-[2-(4-benzyl-3-hydroxy-piperidin-1-yl)-ethanesulfonyl]-phenyl Ester] | 89 (≈ 0.154 mM) | – | – | –

Row | SMILES | Stability at pH 7.4 over 24 hours (Stability in solution) | solubility (Solubility; [1]) [µg/mL] | Solubility at pH 7.4 relative to the parent compound, suggested/assumed from pH 4.0 data (Solubility) | solubility (Solubility; [2]) [µg/mL] | NMDA receptor subtype specific blocker (NMDA receptor subtype) | solubility (Solubility; aqueous buffer, pH 4.8 (printed in the cell of the pH 4 column), read-out: Solubility (μg/ml) at pH 4.8) [µg/mL] | Water solubility at physiological pH (Solubility; physiological pH)
7 | O=P(O)(O)Oc1ccc(S(=O)(=O)CCN2CC[C@H](Cc3ccccc3)[C@H](O)C2)cc1 [Example 2, Phosphoric Acid Mono-{(3S,4S)-4-[2-(4-benzyl-3-hydroxy-piperidin-1-yl)-ethanesulfonyl]-phenyl}ester] | – | 594 (≈ 1.3 mM) | – | > 37600 | – | – | –
